These results are taken from patent US20070155746A1, “NOVEL SUBSTITUTED PYRIDINYLOXY AND PYRIMIDINYLOXY AMIDES USEFUL AS INHIBITORS OF PROTEIN KINASES” (KALYPSYS, INC., priority 2005, published 2007).

Common to all, as to type: biochemical
The target in test [1] is T1, human B-Raf protein kinase (Homo sapiens, UniProt P15056).
T1 construct: GST (N); purchased Upstate Inc. 14-530 (B-Raf); 14-420 (Mek1)
The experiment in a line: In vitro B-Raf/Mek1 composite kinase assay. As to the method: In Vitro B-Raf/Mek1 Composite Kinase Assay
2.5 μl of B-Raf kinase buffer (20 mM MOPS [pH 7.2], 25 mM sodium glycerophosphate, 2 mM EGTA [pH 8.0], 1 mM sodium orthovanadate, 1 mM dithiothreitol, 10 mM MgCl2, 0.03% Brij-35, 0.3 mg/ml bovine serum albumin) containing lng of recombinant, N-terminal GST-tagged human B-Raf protein kinase (Δ1-415, Upstate Inc., cat. #14-530) is dispensed to wells of a 1536 multi-well white solid plate. 60 nl of 100× concentration of test compound in DMSO is dispensed to the well by passive pin transfer and incubated for 15 minutes at room temperature (approx. 22° C.). […] The assay plates are sealed and maintained in a humidified environment. After 2 hours, 2.5 μl of PKLight protein kinase assay reagent (Cambrex, cat. #LT07-501) is dispensed. After an additional 5 minute incubation at room temperature, luminescence activity is measured on a Molecular Devices Analyst multi-mode plate reader or other suitable plate reader. Kinase inhibition results in less ATP depletion, and therefore increased luminescence signal. Negative control activity is measured with DMSO lacking any test compound. The positive control is [N-(3-trifluoromethyl-4-chlorophenyl)-N′-(4-(2-methylcarbamoyl-pyridin-4-yl)oxyphenyl)urea], aka Bay 43-9006. Efficacy is measured as a percentage of positive control activity.

Another test addresses T2, VEGFR2 kinase (Homo sapiens, UniProt P35968).
T2 construct: purchased Invitrogen Inc PV3660
The experiment in a line: In vitro VEGFR2 kinase assay. The protocol: (§1) In Vitro VEGFR2 and PDGFRP Kinase Assays
(§2) 2.5 μl of ADP Quest assay buffer (DiscoverX Inc., cat. #90-0071) containing 20 ng VEGFR2 kinase (Invitrogen Inc, cat. #PV3660) or 25 ng PDGFRβ kinase (Invitrogen Inc., cat. #P3082) is dispensed to wells of a 1536 multi-well, black solid plate. 60 nl of 100× concentration of test compound in DMSO is dispensed to the well by passive pin transfer and incubated for 10 minutes at room temperature (approx. 22° C.). 2.5 μl of ADP Quest assay buffer containing 0.25 μg of poly Glu:Tyr (4:1) substrate peptide (Upstate Inc., cat. #12-440) and 60 μM ATP is then dispensed and the kinase reaction allowed to incubate at 30° C. for 2 hours. The assay plates are sealed and maintained in a humidified environment. After the 2 hour incubation, 2 μl of ADP Quest assay reagent A, followed by 2 μl of assay reagent B, is added. After an additional 30 minute incubation at room temperature, fluorescence intensity is measured on a Molecular Devices Aquest multi-mode plate reader or other suitable plate reader (fluorescence excitation filter: 530/25 [Peak(nm)/FWHM passband(nm)]; dichroic beamsplitter: 561 nm longpass; fluorescence emission filter: 580/10 [Peak(nm)/FWHM passband(nm)]. The assay measures the conversion of a non-fluoresecent molecule to fluorescent resorufin, which correlates with kinase activity. Negative control activity is measured with DMSO lacking any test compound. The positive control is [N-(3-trifluoromethyl-4-chlorophenyl)-N′-(4-(2-methylcarbamoyl-pyridin-4-yl)oxyphenyl)urea], aka Bay 43-9006. Efficacy is measured as a percentage of positive control activity.

The next test deals with T3, PDGFRβ kinase (Homo sapiens, UniProt P09619).
T3 construct: purchased Invitrogen Inc. P3082
The experiment in a line: In vitro PDGFRβ kinase assay. As to the method: as §1, §2

SMILES strings stand for the structures.

T3 sequence (P09619 33-1106): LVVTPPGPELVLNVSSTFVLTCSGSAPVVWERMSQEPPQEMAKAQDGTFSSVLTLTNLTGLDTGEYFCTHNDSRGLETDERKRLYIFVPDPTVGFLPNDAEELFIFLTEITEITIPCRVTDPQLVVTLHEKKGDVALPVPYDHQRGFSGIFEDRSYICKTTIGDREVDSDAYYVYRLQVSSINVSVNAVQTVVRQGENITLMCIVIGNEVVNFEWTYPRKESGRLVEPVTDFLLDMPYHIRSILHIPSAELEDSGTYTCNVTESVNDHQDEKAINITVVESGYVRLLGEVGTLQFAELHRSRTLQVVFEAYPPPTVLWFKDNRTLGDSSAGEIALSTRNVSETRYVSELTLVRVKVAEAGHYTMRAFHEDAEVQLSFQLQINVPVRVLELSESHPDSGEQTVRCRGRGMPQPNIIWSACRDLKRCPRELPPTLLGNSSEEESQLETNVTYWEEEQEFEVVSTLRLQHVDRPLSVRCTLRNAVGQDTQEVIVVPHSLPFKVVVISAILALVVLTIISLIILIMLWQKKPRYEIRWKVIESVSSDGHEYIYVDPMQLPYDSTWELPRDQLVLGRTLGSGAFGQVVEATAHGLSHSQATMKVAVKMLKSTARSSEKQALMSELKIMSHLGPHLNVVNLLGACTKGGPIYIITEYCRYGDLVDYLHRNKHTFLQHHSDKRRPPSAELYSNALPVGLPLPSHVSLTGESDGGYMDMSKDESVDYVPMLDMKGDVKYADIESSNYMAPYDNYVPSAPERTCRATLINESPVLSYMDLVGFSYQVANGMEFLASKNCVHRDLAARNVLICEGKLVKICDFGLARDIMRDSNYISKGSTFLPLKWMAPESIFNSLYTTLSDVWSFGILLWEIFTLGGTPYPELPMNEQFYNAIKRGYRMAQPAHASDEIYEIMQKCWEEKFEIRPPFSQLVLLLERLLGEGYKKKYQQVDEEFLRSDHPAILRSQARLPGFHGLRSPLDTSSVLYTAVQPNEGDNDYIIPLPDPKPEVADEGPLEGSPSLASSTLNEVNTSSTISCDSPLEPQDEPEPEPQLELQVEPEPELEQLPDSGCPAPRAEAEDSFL
T1 sequence (P15056 416-766): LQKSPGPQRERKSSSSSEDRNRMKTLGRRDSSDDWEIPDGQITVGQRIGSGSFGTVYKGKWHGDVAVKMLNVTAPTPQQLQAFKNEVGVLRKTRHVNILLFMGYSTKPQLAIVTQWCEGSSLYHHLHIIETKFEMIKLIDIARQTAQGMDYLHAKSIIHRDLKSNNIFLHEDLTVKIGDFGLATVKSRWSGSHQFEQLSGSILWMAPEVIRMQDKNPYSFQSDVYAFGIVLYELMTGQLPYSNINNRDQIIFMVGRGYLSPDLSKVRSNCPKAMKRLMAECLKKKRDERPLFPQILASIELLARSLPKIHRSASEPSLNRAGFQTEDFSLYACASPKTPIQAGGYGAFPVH
T2 sequence (P35968 20-1356): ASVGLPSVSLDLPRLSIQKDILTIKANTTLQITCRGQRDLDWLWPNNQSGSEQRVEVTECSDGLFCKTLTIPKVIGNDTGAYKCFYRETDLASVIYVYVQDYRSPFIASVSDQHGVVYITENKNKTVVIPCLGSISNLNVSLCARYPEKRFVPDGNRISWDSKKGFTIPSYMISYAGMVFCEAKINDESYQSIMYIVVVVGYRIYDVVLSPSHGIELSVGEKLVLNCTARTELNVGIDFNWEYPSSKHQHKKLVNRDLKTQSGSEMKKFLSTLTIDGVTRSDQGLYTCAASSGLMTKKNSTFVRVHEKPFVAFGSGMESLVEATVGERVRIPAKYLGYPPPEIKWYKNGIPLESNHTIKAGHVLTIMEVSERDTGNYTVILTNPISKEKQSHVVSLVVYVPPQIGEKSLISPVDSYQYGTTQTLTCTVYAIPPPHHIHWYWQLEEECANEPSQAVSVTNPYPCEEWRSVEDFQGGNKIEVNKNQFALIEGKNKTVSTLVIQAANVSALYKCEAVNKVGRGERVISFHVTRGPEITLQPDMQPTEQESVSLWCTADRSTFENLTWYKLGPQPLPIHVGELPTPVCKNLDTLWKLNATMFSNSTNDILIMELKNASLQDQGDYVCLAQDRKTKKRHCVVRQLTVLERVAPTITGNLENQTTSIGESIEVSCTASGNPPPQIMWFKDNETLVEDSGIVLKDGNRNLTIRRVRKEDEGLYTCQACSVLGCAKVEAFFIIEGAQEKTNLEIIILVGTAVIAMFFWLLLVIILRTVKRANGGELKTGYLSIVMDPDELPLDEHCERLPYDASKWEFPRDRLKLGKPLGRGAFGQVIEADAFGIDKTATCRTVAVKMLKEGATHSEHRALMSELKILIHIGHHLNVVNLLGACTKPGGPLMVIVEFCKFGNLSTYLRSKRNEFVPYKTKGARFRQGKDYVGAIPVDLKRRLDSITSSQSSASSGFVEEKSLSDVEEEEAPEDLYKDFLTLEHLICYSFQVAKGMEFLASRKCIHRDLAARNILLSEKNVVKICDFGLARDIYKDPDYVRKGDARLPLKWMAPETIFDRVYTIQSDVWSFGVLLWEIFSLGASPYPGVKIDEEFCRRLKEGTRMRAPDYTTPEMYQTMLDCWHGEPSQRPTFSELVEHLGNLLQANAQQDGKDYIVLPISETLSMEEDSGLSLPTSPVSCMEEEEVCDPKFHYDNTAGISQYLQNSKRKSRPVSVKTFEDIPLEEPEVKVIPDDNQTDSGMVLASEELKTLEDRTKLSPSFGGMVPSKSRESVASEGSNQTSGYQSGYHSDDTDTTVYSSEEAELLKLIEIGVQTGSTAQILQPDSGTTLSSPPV

As usually defined, the IC50 is the concentration at which inhibition is half-maximal. A higher IC50 goes with weaker potency. Take `Cn1cc(-c2cc(Oc3cccc(NC(=O)c4ccc(Cl)c(C(F)(F)F)c4)c3)ncn2)cn1` [Example 25, 4-Chloro-N-(3-(6-(1-methyl-1H-pyrazol-4-yl)pyrimidin-4-yloxy)phenyl)-3-(trifluoromethyl)benzamide]: the IC50 (in test [1]; against VEGFR2 kinase; at PDGFRβ kinase) was above 10 µM each time.
Take `Cn1cc(-c2cc(Oc3ccc(F)c(NC(=O)c4ccc(Cl)c(C(F)(F)F)c4)c3)ncn2)cn1` [Example 26, 4-Chloro-N-(2-fluoro-5-(6-(1-methyl-1H-pyrazol-4-yl)pyrimidin-4-yloxy)phenyl)-3-(trifluoromethyl)benzamide]: the concentration for half-maximal inhibition (IC50) (in test [1]; against VEGFR2 kinase; at PDGFRβ kinase) was above 10 µM in each case.
On to `Cn1cc(-c2nccc(Oc3cccc(NC(=O)c4ccc(OC(F)(F)F)cc4)c3)n2)cn1` [Example 27, N-{3-[2-(1-Methyl-1H-pyrazol-4-yl)-pyrimidin-4-yloxy]-phenyl}-4-trifluoromethoxy-benzamide], for which the IC50 (in test [1]; on VEGFR2 kinase; against PDGFRβ kinase) was above 10 µM throughout.
As to `CN(C)c1cccc(C(=O)Nc2cccc(Oc3ccnc(-c4cnn(C)c4)c3)c2)c1` [Example 28, 3-(Dimethylamino)-N-(3-(2-(1-methyl-1H-pyrazol-4-yl)pyridin-4-yloxy)phenyl)benzamide], the IC50 (in test [1]; at VEGFR2 kinase; against PDGFRβ kinase) was above 10 µM throughout.
In the case of `Cn1cc(-c2cc(Oc3cccc(NC(=O)c4cccc5c4OCO5)c3)ccn2)cn1` [Example 29, N-(3-(2-(1-Methyl-1H-pyrazol-4-yl)pyridin-4-yloxy)phenyl)benzo[d][1,3]dioxole-4-carboxamide], the IC50 in test [1] is at most 10 µM; against VEGFR2 kinase it was above 10 µM; on PDGFRβ kinase, above 10 µM.
For `Cn1cc(-c2cc(Oc3cccc(NC(=O)c4cccc5c4OC(F)(F)O5)c3)ccn2)cn1` [Example 30, 2,2-Difluoro-N-(3-(2-(1-methyl-1H-pyrazol-4-yl)pyridin-4-yloxy)phenyl)benzo[d][1,3]dioxole-4-carboxamide], the IC50 (in test [1]; against VEGFR2 kinase; against PDGFRβ kinase) was above 10 µM each time.
On to `Cn1cc(-c2cc(Oc3cccc(NC(=O)c4cccc(-c5ccccc5)c4)c3)ccn2)cn1` [Example 31, N-(3-(2-(1-Methyl-1H-pyrazol-4-yl)pyridin-4-yloxy)phenyl)biphenyl-3-carboxamide], for which the IC50 (in test [1]; on VEGFR2 kinase; against PDGFRβ kinase) was above 10 µM each time.
Take `Cn1cc(-c2cc(Oc3cccc(NC(=O)c4cccc(-c5ccccn5)c4)c3)ccn2)cn1` [Example 32, N-(3-(2-(1-Methyl-1H-pyrazol-4-yl)pyridin-4-yloxy)phenyl)-3-(pyridin-2-yl)benzamide]: the IC50 (in test [1]; against VEGFR2 kinase; at PDGFRβ kinase) was above 10 µM in each case.
As to `Cn1cc(-c2cc(Oc3cccc(NC(=O)c4cccc(-c5cccnc5)c4)c3)ccn2)cn1` [Example 33, N-(3-(2-(1-Methyl-1H-pyrazol-4-yl)pyridin-4-yloxy)phenyl)-3-(pyridin-3-yl)benzamide], the results for the IC50 (in test [1]; at VEGFR2 kinase; at PDGFRβ kinase) were above 10 µM, at most 10 µM and above 10 µM, respectively.
Turning to `Cn1cc(-c2cc(Oc3cccc(NC(=O)c4cccc(-c5ccncc5)c4)c3)ccn2)cn1` [Example 34, N-(3-(2-(1-Methyl-1H-pyrazol-4-yl)pyridin-4-yloxy)phenyl)-3-(pyridin-4-yl)benzamide], the IC50 (in test [1]; at VEGFR2 kinase; on PDGFRβ kinase) was above 10 µM throughout.
Take `Cn1cc(-c2cc(Oc3cccc(NC(=O)c4cncc(-n5cccc5)c4)c3)ccn2)cn1` [Example 35, N-(3-(2-(1-Methyl-1H-pyrazol-4-yl)pyridin-4-yloxy)phenyl)-5-(1H-pyrrol-1-yl)nicotinamide]: the IC50 (in test [1]; at VEGFR2 kinase; at PDGFRβ kinase) was above 10 µM in each case.
`Cn1cc(-c2cc(Oc3cccc(NC(=O)c4ccccc4-n4ccnc4)c3)ccn2)cn1` [Example 36, 2-(1H-Imidazol-1-yl)-N-(3-(2-(1-methyl-1H-pyrazol-4-yl)pyridin-4-yloxy)phenyl) benzamide]: the IC50 in test [1] was above 10 µM; on VEGFR2 kinase it was at most 10 µM; against PDGFRβ kinase, at most 10 µM.
In the case of `Cn1cc(-c2cc(Oc3cccc(NC(=O)c4cccc(-n5ccnc5)c4)c3)ccn2)cn1` [Example 37, 3-(1H-Imidazol-1-yl)-N-(3-(2-(1-methyl-1H-pyrazol-4-yl)pyridin-4-yloxy)phenyl) benzamide], the IC50 (in test [1]; on VEGFR2 kinase; at PDGFRβ kinase) was above 10 µM each time.
Consider `Cn1cc(-c2cc(Oc3cccc(NC(=O)c4cccc(-n5cnnc5)c4)c3)ccn2)cn1` [Example 38, N-(3-(2-(1-Methyl-1H-pyrazol-4-yl)pyridin-4-yloxy)phenyl)-3-(4H-1,2,4-triazol-4-yl)benzamide], for which the IC50 in test [1] was at most 10 µM; against VEGFR2 kinase it was at most 10 µM; against PDGFRβ kinase, above 10 µM.
For the compound `Cn1cc(-c2cc(Oc3cccc(NC(=O)c4ccccc4OC(F)(F)F)c3)ccn2)cn1` [Example 39, N-(3-(2-(1-Methyl-1H-pyrazol-4-yl)pyridin-4-yloxy)phenyl)-2-(trifluoromethoxy)benzamide], the results for the IC50 (in test [1]; against VEGFR2 kinase; at PDGFRβ kinase) were at most 10 µM, above 10 µM and above 10 µM, respectively.
Consider `Cn1cc(-c2cc(Oc3cccc(NC(=O)c4cccc(OC(F)(F)F)c4)c3)ccn2)cn1` [Example 40, N-(3-(2-(1-Methyl-1H-pyrazol-4-yl)pyridin-4-yloxy)phenyl)-3-(trifluoromethoxy)benzamide], for which the IC50 (in test [1]; against VEGFR2 kinase; at PDGFRβ kinase) was above 10 µM throughout.
For `Cn1cc(-c2cc(Oc3cccc(NC(=O)c4cc(OC(F)(F)F)cc(OC(F)(F)F)c4)c3)ccn2)cn1` [Example 41, N-(3-(2-(1-methyl-1H-pyrazol-4-yl)pyridin-4-yloxy)phenyl)-3,5-bis(trifluoromethoxy)benzamide], the IC50 (in test [1]; against VEGFR2 kinase; on PDGFRβ kinase) was above 10 µM in each case.
In the case of `Cn1cc(-c2cc(Oc3cccc(NC(=O)c4ccc(OC(F)(F)F)cc4OC(F)(F)F)c3)ccn2)cn1` [Example 42, N-(3-(2-(1-Methyl-1H-pyrazol-4-yl)pyridin-4-yloxy)phenyl)-2,4-bis(trifluoromethoxy)benzamide], the IC50 is at most 10 µM in test [1], at most 10 µM against VEGFR2 kinase and above 10 µM against PDGFRβ kinase.
Consider `Cn1cc(-c2cc(Oc3cccc(NC(=O)c4ccccc4C(F)(F)F)c3)ccn2)cn1` [Example 43, N-(3-(2-(1-Methyl-1H-pyrazol-4-yl)pyridin-4-yloxy)phenyl)-2-(trifluoromethyl)benzamide], for which the IC50 (in test [1]; against VEGFR2 kinase; against PDGFRβ kinase) was at most 10 µM throughout.
Take `Cn1cc(-c2cc(Oc3cccc(NC(=O)c4cccc(C(F)(F)F)c4)c3)ccn2)cn1` [Example 44, N-(3-(2-(1-Methyl-1H-pyrazol-4-yl)pyridin-4-yloxy)phenyl)-3-(trifluoromethyl)benzamide]: the IC50 (in test [1]; against VEGFR2 kinase; at PDGFRβ kinase) was above 10 µM throughout.
Regarding `Cn1cc(-c2cc(Oc3cccc(NC(=O)c4ccc(C(F)(F)F)cc4)c3)ccn2)cn1` [Example 45, N-(3-(2-(1-Methyl-1H-pyrazol-4-yl)pyridin-4-yloxy)phenyl)-4-(trifluoromethyl)benzamide], the values for the IC50 (in test [1]; against VEGFR2 kinase; against PDGFRβ kinase) were at most 10 µM, above 10 µM and above 10 µM, respectively.
Regarding `Cn1cc(-c2cc(Oc3cccc(NC(=O)c4cccc(C#N)c4)c3)ccn2)cn1` [Example 46, 3-Cyano-N-(3-(2-(1-methyl-1H-pyrazol-4-yl)pyridin-4-yloxy)phenyl)benzamide], the IC50 was at most 10 µM in test [1], above 10 µM at VEGFR2 kinase and above 10 µM against PDGFRβ kinase.
